The values that follow come from patent US9259433B2, “Synergistic antiviral compositions comprising a viral attachment inhibitor, an integration inhibitor, and a proviral transcription inhibitor, and their use” (priority 2007, dated 2016).

Data set [1] relates to wild type HIV-1 envelope. The data set is described as follows: HIV-based cell-cell fusion (syncytium) assay, co-culture of HeLa-CD4+ cells and CHO-WT cells. The following applies: for antiviral entry activity: HIV entry / syncytium formation. The text has this:
Tieghemella heckelii (Sapotaceae, Th) is a large tree found in the West African rain forest. In January and February, the plant blossoms and develops ovoid fruits of 8 cm length and 7 cm diameter, which ripen in July-October. Many parts of the tree are used in traditional medicine. We have used a series of high-speed counter-current chromatography (HSCC), viral entry and infectivity assay and HIV-based cell-cell fusion assay to isolate specific HIV viral entry inhibitors from the ovoid fruits of the plants. The procedures for the isolation have been described in detail (4). Two pure saponin compounds, Arganine C (Rev 1) and Tieghemella (Gen. 1) have been isolated with the yield of 0.48% and 0.6% respectively.
In HIV infection, syncytia are the result of viral attachment and cell membrane fusion which create giant multi-nucleated cells consisting of both infected and uninfected cells. Rev. 1 and Gen. […] Rev-1 and Gen-1 are structurally identical except for one attached group at C23 (FIG. 1A). C23 glucose for Rev-1 and glucuronic acid for Gen-1 (4, 5). Their antiviral activity requires the C28 sugar chain. […] The four sugars in the substituent at the C28 position are L-arabinose, L-rhamnose, D-xylose and L-rhamnose (FIG. 1B).

Data set [2] concerns HIV particles. The data set is described as follows: HIV-1 attachment to pre-cooled HeLa CD4+ cells, viral capsid in cell lysates. The following applies: HeLa CD4+ cells at 4° C., 30-minute attachment, up to 20 μM.
Experimental: To determine whether the two saponins act exclusively at the attachment step, target HeLa CD4^+ cells were initially pre-cooled at 4° C. before viral exposure to exclude the possibility of virus internalization. Each compound, at graded concentrations, was then mixed with HIV particles and added to target cells in cold media. After a 30-minute attachment period, the cells were profusely washed to remove unbound virus. […] H9 cells (4×10^5) were first incubated with compound and then infected with virus for one hour at 37° C. in CO2 incubator to permit virus fusion and entry. The cells were then centrifuged and washed 3 times with phosphate buffered saline (PBS) to remove the unbound virus as described previously (6,7). The viral entry was determined by p24 antigen-capture assay. For the drug effect on HIV-1 replication and infection, the culture was incubated for 8 days. Viral replication was determined by the amount of HIV-1 p24 antigen in culture supernatant after 8 days of virus infection in H9 cells using the HIV/p24 monoclonal antibody assay (8). […] Only low concentrations were used for testing to minimize the cellular toxicities of the drug.
Data set [3] concerns HIV transcription. The following applies: cited from earlier work.
The subject of data set [4] is red blood cells. The data set is described as follows: Hemolysis, release of hemoglobin from red blood cells. It is filed as cell-based. The protocol:
As such, Rev-1 and Gen-1 are both hemolytic, a property which may restrict potential use in therapy. To see whether modification of C28 sugar side chain can abolish such hemolytic effect, we acetylated the hydroxyl group of the C28 sugars with acetic anhydride. Briefly, 10 ml of pyridine and 5 ml acetic anhydride were added to a solution of pure tieghemella (Gen-1, 100 mg) in 5 ml methanol at 0° C. The solution mixture was allowed to reflux for […]. The resultant mixture was extracted with water at 20° C. as described in reference 9. The aqueous solution was washed several times with dichloromethane. The water filtrate was dried under the hood to afford oAc-Gen-1; (160 mg). We compared the hemolytic effect of Gen-1 and oAc-Gen-1 by measuring the release of hemoglobin from red blood cells in the presence of Gen.1 or o-Ac Gen.

In data set [5] the test system is HIV-1RTMF. The data set is described as follows: Drug combination study in H9 cells infected with HIV-1RTMF, p24 assay. Format: cell-based. The following applies: Human immunodeficiency virus 1, H9, 192 h. The text has this: We tested drug combinations against two different cells infected with laboratory strain of HIV-1 RTMF. For these drug combinational studies, both the H9 cells and human PBMC have been used. We first tested how our inhibitors affect one specific strain of HIV which is resistant to drug against RT (HIV-1RTMF). Briefly H9 (1×10^5/ml) were infected with HIV-1RTMF strain with a multiplicity of infection of 0.1. These cells were further tested with three drugs, M522, Gen-1 and G4N, either in combination or separately (8, 10, 21B). After 4-day incubation at 37° C., H9 cells were subcultured with fresh culture medium containing appropriate concentrations 0, 1.25, 2.5, 5, 10, 20, 40 and 80 μM of each of the drugs, or of a combination of all three of the drugs, each at the indicated concentration. The inhibition for HIV-1 by these combinations of drugs was examined using p24 assay after 8 days.
(§1) Similarly, PBMC cells were isolated from a healthy blood sample and these cells were stimulated by PHA and IL-2. PBMC (5×10^6/ml) were infected with HIV-1RTMF. The cells were treated with three combinations of drugs, M522, Gen-1 and G4N. Fresh media and drugs were added after 4 days with drug concentrations 0, 1.25, 2.5, 5, 10, 20, 40 and 80 μM. The inhibition for HIV-1 by these combinations of drugs was also examined by using p24 assay after 8 days. […] In comparison, cytotoxicity for the three drugs combined to H9 cells was also analyzed using an MTT assay.

The test system of data set [6] is HSV-2. Put plainly: Mouse vaginal model of HSV-2 infection. The following applies: 10 mM. It is filed as in vivo, female CF-1 mice. The text has this: P4N was also found to be quite effective.
Data set [7] deals with Sp1 binding sites of the HIV long terminal repeat (LTR). The following applies: in vitro; cited from earlier work.
Data set [8] deals with H9 cells. Format: cell-based. The following applies: 192 h. How it is done:
A series of drug concentrations ranging from 1.25 μg/ml to 160 μg/ml were used for testing the cytotoxicity of M522 and M532 in H9 cells, using the MTT assay to determine the viability of H9 cells in culture. […] In fact, the drug-protected, HIV-infected H9 cells appeared to be morphologically identical to the uninfected control cells (6).
as §1

Data set [9] deals with HIV-1 integrase (Human immunodeficiency virus type 1 group M subtype B, UniProt P04585). Put plainly: HIV-1 integrase catalytic activity of 3'-joining to the target DNA. It is filed as biochemical. The following applies: read-out: IC50, 3′-joining to the target DNA. An excerpt:
(§2) a. Salvia genus of Labiaceae family contains approximately 1000 species. 78 of these are distributed in different regions in China. […] An INi search was established based on an assay-guided purification procedure utilizing different concentrations of methanol, propanol, a two-layer extraction system (low salt water/butanol), and a high resolution inverted phase HPLC (Sperisorb OD S-2).

The subject of data set [10] is HIV. The data set is described as follows: HIV entry in H9 cells. The following applies: compound by itself. Format: cell-based.
Source text: as §2

Data set [11] deals with T1, reverse transcriptase (Human immunodeficiency virus type 1 group M subtype B, UniProt P04585).
T1 construct: endogenous in cells; host or cells: HIV-infected cells (H9 cells named in the same paragraph)
The data set is described as follows: Reverse transcriptase activity and viral DNA levels in infected cells. It is filed as cell-based, HIV.
Source text: as §2

For data set [12], the system named is HIV-1. The data set is described as follows: Acute HIV-1 infection of H9 cells. Format: cell-based.
Source text: as §2

Data set [13] concerns HIV-1RTMF (AZT-resistant virus). The data set is described as follows: HIV replication in infected H9 cells, HIV/p24 monoclonal antibody assay. The following applies: H9 cells infected with HIV-1RTMF in the presence of drug. It is filed as cell-based. The protocol: The inhibitory effect of M522 and M532 against HIV replication was further examined using 5 different strains of HIV-1, drug resistant and primary isolates in the presence of a variety of drug concentrations in infected H9 cells.
A series of drug concentrations ranging from 1.25 μg/ml to 160 μg/ml were used for testing the cytotoxicity of M522 and M532 in H9 cells, using the MTT assay to determine the viability of H9 cells in culture.

Data set [14] addresses deletion mutant HIV-1 integrase (IN^50-212) (Human immunodeficiency virus type 1 group M subtype B, UniProt P04585). The data set is described as follows: Disintegration assay. It is filed as biochemical. The following applies: IN^50-212 core domain; equal efficacy with wild type. How it is done:
(§3) To determine whether M522 and M532 are acting against the catalytic core domain specifically, disintegration assay was tested using deletion mutant IN containing only the core domain of HIV integrase. Such deletion mutant is defective for normal integration, but it is capable of catalyzing a reversal of the forward reaction, termed “disintegration”. The disintegration reaction can be assayed by using a deletion mutant HIV-1 integrase (IN^50-212) which lacks both the amino terminal zinc binding and the carboxyl terminal DNA binding domains but remains active in this assay, whereas such truncated IN loses activity in the 3′-processing and joining (strand transfer) assays. So, disintegration assay can be used to probe the site of drug-enzyme binding.

Data set [15] has as its target wild type HIV-1 integrase (Human immunodeficiency virus type 1 group M subtype B, UniProt P04585). The data set is described as follows: Disintegration assay. The following applies: equal efficacy with deletion mutant. Format: biochemical. The protocol:
as §3

The structures appear in SMILES notation. Where two headings read alike, the source gives them in different places.

Take `CC1(C)CC[C@]2(C(=O)O)[C@H](O)C[C@]3(C)C(=CC[C@@H]4[C@@]5(C)C[C@H](O)[C@H](O[C@@H]6O[C@H](C(=O)O)[C@@H](O)[C@H](O)[C@H]6O)[C@@](C)(CO)[C@@H]5[C@H](O)C[C@]43C)[C@@H]2C1` [A-GEN, 16α-hydroxyprotobassic acid 3-0-β-D-glucuronopyranoside]: in data set [1], the antiviral entry activity entry is recorded as “total loss of antiviral entry activity”. Moreover, the inhibition of attachment entry in [2] was “totally devoid of activity”.
Take `COc1cc(C[C@H](C)[C@H](C)Cc2ccc(O)c(O)c2)ccc1O` [3′-O-methyl NDGA]: in data set [3], the “inhibition of HIV transcription” value is listed as “specifically block HIV transcription”.
Regarding `CC1(C)CC[C@]2(C(=O)O)[C@H](O)C[C@]3(C)C(=CC[C@@H]4[C@@]5(C)C[C@H](O)[C@H](O[C@@H]6O[C@H](CO)[C@@H](O)[C@H](O)[C@H]6O)[C@@](C)(CO)[C@@H]5[C@H](O)C[C@]43C)[C@@H]2C1` [A-REV, 16α-hydroxyprotobassic 3-0-β-D-glycopyransoide], the antiviral entry activity entry in data set [1] was “total loss of antiviral entry activity”.
Turning to `C[C@@H]1O[C@@H](O[C@@H]2[C@@H](O)[C@H](O[C@@H]3[C@@H](O)[C@@H](O)[C@H](O[C@H]4[C@H](OC(=O)[C@]56CCC(C)(C)C[C@H]5C5=CC[C@@H]7[C@@]8(C)C[C@H](O)[C@H](O[C@@H]9O[C@H](C(=O)O)[C@@H](O)[C@H](O)[C@H]9O)[C@@](C)(CO)[C@@H]8[C@H](O)C[C@@]7(C)[C@]5(C)C[C@H]6O)OC[C@H](O)[C@@H]4O)O[C@H]3C)OC[C@H]2O)[C@H](O)[C@H](O)[C@H]1O` [Gen-1, Tieghemelin], the antiviral entry activity entry in [1] is on record as “less potent”. The figures for the IC50 in data set [1] (Human immunodeficiency virus 1) and in data set [5] were 17 µM and 40 µM, respectively. Moreover, the hemolytic effect result in data set [4] is recorded as “hemolytic”. The “red blood cells lysed” value in data set [4] (57 μM) is 50%. In [2], the inhibition of attachment entry is given as “dose-dependent inhibition of attachment”.
As for `C[C@H](Cc1ccc(OCCN2CCCCC2)c(OCCN2CCCCC2)c1)[C@@H](C)Cc1ccc(OCCN2CCCCC2)c(OCCN2CCCCC2)c1` [P4N], the average scale in data set [6] came to 0.19. In data set [6] (10 mice per group), the animals infected is 2 of 10. The “effect on Sp1 binding” value in [7] was “disrupt Sp1 transcription factor binding”.
Turning to `C[C@@H]1O[C@@H](O[C@@H]2[C@@H](O)[C@H](O[C@@H]3[C@@H](O)[C@@H](O)[C@H](O[C@H]4[C@H](OC(=O)[C@]56CCC(C)(C)C[C@H]5C5=CC[C@@H]7[C@@]8(C)C[C@H](O)[C@H](O[C@@H]9O[C@H](CO)[C@@H](O)[C@H](O)[C@H]9O)[C@@](C)(CO)[C@@H]8[C@H](O)C[C@@]7(C)[C@]5(C)C[C@H]6O)OC[C@H](O)[C@@H]4O)O[C@H]3C)OC[C@H]2O)[C@H](O)[C@H](O)[C@H]1O` [Rev.1, arganine C], the antiviral entry activity entry in data set [1] was “strongly inhibited”. In addition, the IC50 in data set [1] (HIV-based cell-cell fusion assay (FIG. 1), read-out: IC50) was 2.8 µM. The hemolytic effect entry in data set [4] (effective drug concentrations that blocked viral entry) was “hemolytic”. Besides, in data set [2], the inhibition of attachment entry is recorded as “dose-dependent inhibition of attachment”.
Regarding `O=C(/C=C/c1ccc(O)c2c1[C@H](C(=O)O[C@H](Cc1ccc(O)c(O)c1)C(=O)O)[C@@H](c1ccc(O)c(O)c1)O2)O[C@H](Cc1ccc(O)c(O)c1)C(=O)O` [M532, lithospermic acid B], the “CC100 (highest concentration tested, cells remained viable)” value in data set [8] was determined as 160 µg/mL. For the same compound, the IC50 in data set [9] was 0.37 µM; in data set [12] it was 6.9 µM. Also, the “prevention of HIV entry” value in data set [10] is “Neither M522 nor M532 by itself prevents HIV entry”. Besides, in [11] (following drug treatment), the “levels of intracellular strong stop and full-length viral DNA” value is given as “remained unchanged”. For the same compound, in data set [11] (infected cells), the “inhibition of reverse transcriptase activity” value is given as “no inhibition of reverse transcriptase activity”. Besides, the syncytia formation entry in data set [13] was “syncytia formation was prevented”. Moreover, the inhibition of disintegration entry in [14] and in data set [15] was “inhibited” throughout.
In the case of `CC(Cc1ccc(O)c(O)c1)C(C)Cc1ccc(O)c(O)c1` (stereo not shown) [NDGA, nordihydroguaiaretic acid, reference compound], the “inhibition of HIV transcription” value in data set [3] is on record as “does not inhibit HIV transcription”. For the same compound, the “effect on Sp1 binding” value in [7] is “no effect on Sp1 binding”.
